Target: T1, human ERK-2 (Mitogen Activated Kinase 1) (Homo sapiens, UniProt P28482)
T1 construct: n-terminal 6-His fusion protein in E. coli and corresponding to aa 8-360; 6-His (N); made in house; host or cells: E. coli
Assay: ERK-2 Enzymatic Assay
Assay type: biochemical
Conditions: ERK-2 enzymatic assay; read-out: IC50
Description: Table 1 contains representative data for Examples disclosed herein.

T1 sequence (P28482 8-360): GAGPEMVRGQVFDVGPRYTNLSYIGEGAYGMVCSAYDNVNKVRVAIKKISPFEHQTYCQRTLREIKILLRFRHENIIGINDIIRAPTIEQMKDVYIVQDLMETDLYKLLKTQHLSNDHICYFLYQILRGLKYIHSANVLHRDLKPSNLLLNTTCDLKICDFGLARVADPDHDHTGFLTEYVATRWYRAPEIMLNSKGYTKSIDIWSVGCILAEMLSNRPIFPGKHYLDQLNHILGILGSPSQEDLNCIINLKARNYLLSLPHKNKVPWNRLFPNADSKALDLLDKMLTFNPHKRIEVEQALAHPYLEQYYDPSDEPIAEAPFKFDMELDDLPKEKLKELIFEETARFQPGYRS

| Structure (SMILES) | IC50 [nM] |
| --- | --- |
| CC(O)CCn1nnc2cc(-c3ccnc(Nc4ccnn4C)n3)ccc21 (stereo not shown) [Example 41, 4-(5-(2-((1-methyl-1H-pyrazol-5-yl)amino)pyrimidin-4-yl)-1H-benzo[d][1,2,3]triazol-1-yl)butan-2-ol] | < 100 |
| Cn1nccc1Nc1nccc(-c2ccc3c(c2)nnn3CC2CN(CC(F)(F)F)C2)n1 [Example 64, N-(1-methyl-1H-pyrazol-5-yl)-4-(1-((1-(2,2,2-trifluoroethyl)azetidin-3-yl)methyl)-1H-benzo[d][1,2,3]triazol-5-yl)pyrimidin-2-amine] | < 100 |
| COC(C)(C)Cn1nnc2cc(-c3ccnc(Nc4ccnn4C)n3)ccc21 [Example 44, 4-(1-(2-methoxy-2-methylpropyl)-1H-benzo[d][1,2,3]triazol-5-yl)-N-(1-methyl-1H-pyrazol-5-yl)pyrimidin-2-amine] | < 100 |
| CN1CC(n2nnc3cc(-c4ccnc(Nc5cnn(C)c5)n4)ccc32)[C@H](c2ccc(F)cc2F)C1 (stereo partly drawn) [Example 73, 4-(1-((3S,4R)-4-(2,4-difluorophenyl)-1-methylpyrrolidin-3-yl)-1H-benzo[d][1,2,3]triazol-5-yl)-N(1-methyl-1H-pyrazol-4-yl)pyrimidin-2-amine] | < 100 |
| CCOCC1(Cn2nnc3cc(-c4ccnc(Nc5ccnn5C)n4)ccc32)CC1 [Example 45, 4-(1-((1-(ethoxymethyl)cyclopropyl)methyl)-1H-benzo[d][1,2,3]triazol-5-yl)-N-(1-methyl-1H-pyrazol-5-yl)pyrimidin-2-amine] | < 100 |
| CC(C)Cn1nnc2cc(-c3ccnc(Nc4ccnn4C)n3)cnc21 [Example 114, 4-(3-isobutyl-3H-[1,2,3]triazolo[4,5-b]pyridin-6-yl)-N-(1-methyl-1H-pyrazol-5-yl)pyrimidin-2-amine] | < 100 |
| Cn1nccc1Nc1nccc(-c2ccc3c(c2)nnn3CC(F)F)n1 [Example 37, 4-(1-(2,2-difluoroethyl)-1H-benzo[d][1,2,3]triazol-5-yl)-N-(1-methyl-1H-pyrazol-5-yl)pyrimidin-2-amine] | < 100 |
| CN1C[C@@H](n2nnc3cc(-c4ccnc(Nc5ccnn5C)n4)ccc32)[C@H](c2ccc(F)cc2F)C1 [Example 74, 4-(1-((3S,4R)-4-(2,4-difluorophenyl)-1-methylpyrrolidin-3-yl)-1H-benzo[d][1,2,3]triazol-5-yl)-N-(1-methyl-1H-pyrazol-5-yl)pyrimidin-2-amine] | < 100 |
| CCN1C[C@@H](n2nnc3cc(-c4ccnc(Nc5ccnn5C)n4)ccc32)[C@H](c2ccc(F)c(F)c2)C1 [Example 77, 4-(1-((3S,4R)-4-(3,4-difluorophenyl)-1-ethylpyrrolidin-3-yl)-1H-benzo[d][1,2,3]triazol-5-yl)-N-(1-methyl-1H-pyrazol-5-yl)pyrimidin-2-amine] | < 100 |
| Cn1nccc1Nc1nccc(-c2ccc3c(c2)nnn3Cc2cccc(C(F)(F)F)n2)n1 [Example 52, N-(1-methyl-1H-pyrazol-5-yl)-4-(1-((6-(trifluoromethyl)pyridin-2-yl)methyl)-1H-benzo[d][1,2,3]triazol-5-yl)pyrimidin-2-amine] | < 100 |
| Cc1cc(-n2nnc3cc(-c4ccnc(Nc5ccnn5C)n4)ccc32)n(-c2ccccn2)n1 [Example 82, 4-(1-(3-methyl-1-(pyridin-2-yl)-1H-pyrazol-5-yl)-1H-benzo[d][1,2,3]triazol-5-yl)-N-(1-methyl-1H-pyrazol-5-yl)pyrimidin-2-amine] | < 100 |
| COc1ccc(Cn2nnc3cc(-c4ccnc(Nc5nnc(C)s5)n4)ccc32)cc1F [Example 11, N-(4-(1-(3-fluoro-4-methoxybenzyl)-1H-benzol[d][1,2,3]triazol-5-yl)pyrimidin-2-yl)-5-methyl-1,3,4-thiadiazol-2-amine] | < 100 |
| Cn1nccc1Cn1nnc2cc(-c3ccnc(Nc4ccnn4C)n3)ccc21 [Example 39, N-(1-methyl-1H-pyrazol-5-yl)-4-(1-((1-methyl-1H-pyrazol-5-yl)methyl)-1H-benzo[d][1,2,3]triazol-5-yl)pyrimidin-2-amine] | < 100 |
| Cn1nccc1Nc1nccc(-c2ccc3c(c2)nnn3CC2(c3ccc(OC(F)(F)F)cc3)CC2)n1 [Example 47, N-(1-methyl-1H-pyrazol-5-yl)-4-(1-((1-(4-(trifluoromethoxy)phenyl)cyclopropyl)methyl)-1H-benzo[d][1,2,3]triazol-5-yl)pyrimidin-2-amine] | < 100 |
| COCCN1C[C@H](c2ccc(F)cc2)[C@@H](n2nnc3cc(-c4ccnc(Nc5ccnn5C)n4)ccc32)C1 [Example 83, 4-(1-((3R,4S)-4-(4-fluorophenyl)-1-(2-methoxyethyl)pyrrolidin-3-yl)-1H-benzo[d][1,2,3]triazol-5-yl)-N-(1-methyl-1H-pyrazol-5-yl)pyrimidin-2-amine] | < 100 |
| Cn1nccc1Nc1nccc(-c2ccc3c(c2)nnn3Cc2cccc(F)c2)n1 [Example 120, 4-(1-(3-fluorobenzyl)-1H-benzo[d][1,2,3]triazol-5-yl)-N-(1-methyl-1H-pyrazol-5-yl)pyrimidin-2-amine] | < 100 |
| Cn1nccc1Nc1nccc(-c2ccc3c(c2)nnn3CC(C)(F)F)n1 [Example 31, 4-(1-(2,2-difluoropropyl)-1H-benzo[d][1,2,3]triazol-5-yl)-N-(1-methyl-1H-pyrazol-5-yl)pyrimidin-2-amine] | < 100 |

| Structure (SMILES) | IC50 [nM] |
| --- | --- |
| Fc1cc(Cn2nnc3cc(-c4ccnc(NC5CCOCC5)n4)ccc32)ccc1Cl [Example 109, 4-(1-(4-chloro-3-fluorobenzyl)-1H-benzo[d][1,2,3]triazol-5-yl)-N-(tetrahydro-2H-pyran-4-yl)pyrimidin-2-amine] | < 100 |
| COc1ncccc1Cn1nnc2cc(-c3ccnc(Nc4ccnn4C)n3)cnc21 [Example 126, 4-(3-((2-methoxypyridin-3-yl)methyl)-3H-[1,2,3]triazolo[4,5-b]pyridin-6-yl)-N-(1-methyl-1H-pyrazol-5-yl)pyrimidin-2-amine] | < 100 |
| Cc1cnn(CCn2nnc3cc(-c4ccnc(Nc5ccnn5C)n4)ccc32)c1 [Example 103, 4-(1-(2-(4-methyl-1H-pyrazol-1-yl)ethyl)-1H-benzo[d][1,2,3]triazol-5-yl)-N-(1-methyl-1H-pyrazol-5-yl)pyrimidin-2-amine] | < 100 |
| COCCCn1nnc2cc(-c3ccnc(Nc4ccnn4C)n3)ccc21 [Example 42, 4-(1-(3-methoxypropyl)-1H-benzo[d][1,2,3]triazol-5-yl)-N-(1-methyl-1H-pyrazol-5-yl)pyrimidin-2-amine] | < 100 |
| CC(C)Cn1nnc2cc(-c3ccnc(Nc4cnn(C)c4)n3)ccc21 [Example 97, 4-(1-isobutyl-1H-benzo[d][1,2,3]triazol-5-yl)-N-(1-methyl-1H-pyrazol-4-yl)pyrimidin-2-amine] | < 100 |
| Cn1nccc1Nc1nccc(-c2ccc3c(c2)nnn3Cc2cccc(Cl)c2)n1 [Example 117, 4-(1-(3-chlorobenzyl)-1H-benzo[d][1,2,3]triazol-5-yl)-N(1-methyl-1H-pyrazol-5-yl)pyrimidin-2-amine] | < 100 |
| COc1cccc(F)c1CN1CCC[C@@H](n2nnc3cc(-c4ccnc(Nc5ccnn5C)n4)ccc32)C1 [Example 105, (R)-4-(1-(1-(2-fluoro-6-methoxybenzyl)piperidin-3-yl)-1H-benzo[d][1,2,3]triazol-5-yl)-N-(1-methyl-1H-pyrazol-5-yl)pyrimidin-2-amine] | < 100 |
| COc1ccc(Cn2nnc3cc(-c4ccnc(NC5CC5)n4)ccc32)cc1F [Example 15, N-cyclopropyl-4-(1-(3-fluoro-4-methoxybenzyl)-1H-benzo[d][1,2,3]triazol-5-yl)pyrimidin-2-amine] | < 100 |
| COc1ccc(Cn2nnc3cc(-c4ccnc(Nc5ccnn5C)n4)ccc32)cc1F [Example 113, 4-(1-(3-fluoro-4-methoxybenzyl)-1H-benzol[d][1,2,3]triazol-5-yl)-N-(1-methyl-1H-pyrazol-5-yl)pyrimidin-2-amine] | < 100 |
| Cn1nccc1Nc1nccc(-c2ccc3c(c2)nnn3CC2CCCCO2)n1 (stereo not shown) [Example 101, N-(1-methyl-1H-pyrazol-5-yl)-4-(1-((tetrahydro-2H-pyran-2-yl)methyl)-1H-benzoyl[d][1,2,3]triazol-5-yl)pyrimidin-2-amine] | < 100 |
| Cn1nccc1Nc1nccc(-c2cnc3c(c2)nnn3Cc2ccc(Cl)cc2)n1 [Example 116, 4-(3-(4-chlorobenzyl)-3H-[1,2,3]triazolo[4,5-b]pyridin-6-yl)-N-(1-methyl-1H-pyrazol-5-yl)pyrimidin-2-amine] | < 100 |
| Cn1nccc1Nc1nccc(-c2ccc3c(c2)nnn3CC2(C)CCC2)n1 [Example 48, N-(1-methyl-1H-pyrazol-5-yl)-4-(1-((1-methylcyclobutyl)methyl)-1H-benzo[d][1,2,3]triazol-5-yl)pyrimidin-2-amine] | < 100 |
| CCC(C)Cn1nnc2cc(-c3ccnc(Nc4ccnn4C)n3)ccc21 (stereo not shown) [Example 27] | < 100 |
| Cn1nccc1Nc1nccc(-c2cnc3c(c2)nnn3Cc2ccc(F)c(Cl)c2)n1 [Example 121, 4-(3-(3-chloro-4-fluorobenzyl)-3H-[1,2,3]triazolo[4,5-b]pyridin-6-yl)-N-(1-methyl-1H-pyrazol-5-yl)pyrimidin-2-amine] | < 100 |
| Cn1nccc1Nc1nccc(-c2ccc3c(c2)nnn3Cc2ccc(OC(F)F)cc2)n1 [Example 51, 4-(1-(4-(difluoromethoxy)benzyl)-1H-benzo[d][1,2,3]triazol-5-yl)-N-(1-methyl-1H-pyrazol-5-yl)pyrimidin-2-amine] | < 100 |
| COc1ccc(Cn2nnc3cc(-c4ccnc(NC[C@@H](O)CO)n4)ccc32)cc1F [Example 20, (R)-3-((4-(1-(3-fluoro-4-methoxybenzyl)-1H-benzo[d][1,2,3]triazol-5-yl)pyrimidin-2-yl)amino)propane-1,2-diol] | < 100 |
| COc1ccc([C@@H](c2cnnn2C)n2nnc3cc(-c4ccnc(Nc5ccnn5C)n4)ccc32)cc1F [Example 71, (S)-4-(l-((3-fluoro-4-methoxyphenyl)(1-methyl-1H-1,2,3-triazol-5-yl)methyl)-1H-benzo[d][1,2,3]triazol-5-yl)-N-(1-methyl-1H-pyrazol-5-yl)pyrimidin-2-amine] | < 100 |
